Laboratory results from patent US10150760B2, “Compounds for use in preparing heterocyclic triazole agonists of the APJ receptor” (AMGEN INC., priority 2016, dated 2018).

Molecular target: human APJ receptor (Homo sapiens (Human), UniProt P35414)
Experiment: [35S]GTPγS binding assay on membranes from CHO cells stably expressing human APJ receptor
Assay type: biochemical
Conditions: read-out: Activity hAPJ SPA EC50 IP
How it was run: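 Membranes from CHO cells stably expressing human APJ incubated with ligand, 0.2 nM [35S]GTPγS and WGA SPA beads in HEPES pH 7.5 with 5 mM MgCl2, 200 mM NaCl, 3 μM GDP, 90 min at RT. Nonspecific binding defined with 100 μM GTPγS; EC50 by non-linear regression.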

Sequence of human APJ receptor (P35414 whole entry): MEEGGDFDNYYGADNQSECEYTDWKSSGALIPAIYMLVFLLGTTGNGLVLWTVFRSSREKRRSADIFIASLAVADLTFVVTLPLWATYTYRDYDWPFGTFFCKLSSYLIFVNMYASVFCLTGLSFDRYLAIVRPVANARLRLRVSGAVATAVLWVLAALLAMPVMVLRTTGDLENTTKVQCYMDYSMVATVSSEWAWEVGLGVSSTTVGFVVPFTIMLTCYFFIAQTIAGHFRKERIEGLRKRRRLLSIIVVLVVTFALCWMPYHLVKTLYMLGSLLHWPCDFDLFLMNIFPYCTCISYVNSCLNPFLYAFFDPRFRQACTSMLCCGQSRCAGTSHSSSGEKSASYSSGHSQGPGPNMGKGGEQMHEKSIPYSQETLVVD

Substance | EC50 [nM]
(1S,2S)-N-(4-(1,3-dimethoxy-2-propanyl)-5-((2R,5R)-5-methyltetrahydro-2-furanyl)-4H-1,2,4-triazol-3-yl)-1-(5-methyl-2-pyrimidinyl)-1-(2-propanyloxy)-2-propanesulfonamide or (1S,2S)-N-(4-(1,3-dimethoxy-2-propanyl)-5-((2S,5S)-5-methyltetrahydro-2-furanyl)-4H-1,2,4-triazol-3-yl)-1-(5-methyl-2-pyrimidinyl)-1-(2-propanyloxy)-2-propanesulfonamide [Example 358.0] | 430
(1S,2S)-N-(4-(1,3-dimethoxy-2-propanyl)-5-((2R,5R)-5-methyltetrahydro-2-furanyl)-4H-1,2,4-triazol-3-yl)-1-(5-methyl-2-pyrimidinyl)-1-(2-propanyloxy)-2-propanesulfonamide or (1S,2S)-N-(4-(1,3-dimethoxy-2-propanyl)-5-((2S,5S)-5-methyltetrahydro-2-furanyl)-4H-1,2,4-triazol-3-yl)-1-(5-methyl-2-pyrimidinyl)-1-(2-propanyloxy)-2-propanesulfonamide [Example 359.0] | 11
(1S,2S)-N-(4-(2,6-dimethoxyphenyl)-5-((3R)-tetrahydro-3-furanyl)-4H-1,2,4-triazol-3-yl)-1-(5-methyl-2-pyridinyl)-1-(2-propanyloxy)-2-propanesulfonamide or (1S,2S)-N-(4-(2,6-dimethoxyphenyl)-5-((3S)-tetrahydro-3-furanyl)-4H-1,2,4-triazol-3-yl)-1-(5-methyl-2-pyridinyl)-1-(2-propanyloxy)-2-propanesulfonamide [Example 407.0] | 10
(1S,2S)-N-(4-(2,6-dimethoxyphenyl)-5-((S)-1,4-dioxan-2-yl)-4H-1,2,4-triazol-3-yl)-1-isopropoxy-1-(5-methylpyrimidin-2-yl)propane-2-sulfonamide and (1S,2S)-N-(4-(2,6-dimethoxyphenyl)-5-((R)-1,4-dioxan-2-yl)-4H-1,2,4-triazol-3-yl)-1-isopropoxy-1-(5-methylpyrimidin-2-yl)propane-2-sulfonamide [Example 256.0] | 15
(1S,2S)-N-(4-(2,6-dimethoxyphenyl)-5-((S)-5,5-dimethyltetrahydrofuran-2-yl)-4H-1,2,4-triazol-3-yl)-1-isopropoxy-1-(5-methylpyrimidin-2-yl)propane-2-sulfonamide or (1S,2S)-N-(4-(2,6-dimethoxyphenyl)-5-((R)-5,5-dimethyltetrahydrofuran-2-yl)-4H-1,2,4-triazol-3-yl)-1-isopropxy-1-(5-methylpyrimidin-2-yl)propane-2-sulfonamide [Example 210.0] | 0.62
(1S,2S)-N-(4-(4,6-dimethoxypyrimidin-5-yl)-5-((R)-5,5-dimethyltetrahydrofuran-3-yl)-4H-1,2,4-triazol-3-yl)-1-isopropoxy-1-(5-methylpyrimidin-2-yl)propane-2-sulfonamide or (1S,2S)-N-(4-(4,6-dimethoxypyrimidin-5-yl)-5-((S)-5,5-dimethyltetrahydrofuran-3-yl)-4H-1,2,4-triazol-3-yl)-1-isopropoxy-1-(5-methylpyrimidin-2-yl)propane-2-sulfonamide [Example 313.0] | 530
(1S,2S)-N-(4-(4,6-dimethoxypyrimidin-5-yl)-5-((R)-5,5-dimethyltetrahydrofuran-3-yl)-4H-1,2,4-triazol-3-yl)-1-isopropoxy-1-(5-methylpyrimidin-2-yl)propane-2-sulfonamide or (1S,2S)-N-(4-(4,6-dimethoxypyrimidin-5-yl)-5-((S)-5,5-dimethyltetrahydrofuran-3-yl)-4H-1,2,4-triazol-3-yl)-1-isopropoxy-1-(5-methylpyrimidin-2-yl)propane-2-sulfonamide [Example 314.0] | 71
(1S,2S)-N-(4-(4,6-dimethoxypyrimidin-5-yl)-5-((R)-tetrahydrofuran-3-yl)-4H-1,2,4-triazol-3-yl)-1-(5-fluoropyrimidin-2-yl)-1-isopropoxypropane-2-sulfonamide or (1S,2S)-N-(4-(4,6-dimethoxypyrimidin-5-yl)-5-((S)-tetrahydrofuran-3-yl)-4H-1,2,4-triazol-3-yl)-1-(5-fluoropyrimidin-2-yl)-1-isopropoxypropane-2-sulfonamide [Example 321.0] | 68
(1S,2S)-N-(4-(4,6-dimethoxypyrimidin-5-yl)-5-((R)-tetrahydrofuran-3-yl)-4H-1,2,4-triazol-3-yl)-1-(5-fluoropyrimidin-2-yl)-1-isopropoxypropane-2-sulfonamide or (1S,2S)-N-(4-(4,6-dimethoxypyrimidin-5-yl)-5-((S)-tetrahydrofuran-3-yl)-4H-1,2,4-triazol-3-yl)-1-(5-fluoropyrimidin-2-yl)-1-isopropoxypropane-2-sulfonamide [Example 322.0] | 310
(1S,2S)-N-(4-(4,6-dimethoxypyrimidin-5-yl)-5-((R)-tetrahydrofuran-3-yl)-4H-1,2,4-triazol-3-yl)-1-isopropoxy-1-(5-methylpyridin-2-yl)propane-2-sulfonamide or (1S,2S)-N-(4-(4,6-dimethoxypyrimidin-5-yl)-5-((S)-tetrahydrofuran-3-yl)-4H-1,2,4-triazol-3-yl)-1-isopropoxy-1-(5-methylpyridin-2-yl)propane-2-sulfonamide [Example 323.0] | 47
(1S,2S)-N-(4-(4,6-dimethoxypyrimidin-5-yl)-5-((R)-tetrahydrofuran-3-yl)-4H-1,2,4-triazol-3-yl)-1-isopropoxy-1-(5-methylpyridin-2-yl)propane-2-sulfonamide or (1S,2S)-N-(4-(4,6-dimethoxypyrimidin-5-yl)-5-((S)-tetrahydrofuran-3-yl)-4H-1,2,4-triazol-3-yl)-1-isopropoxy-1-(5-methylpyridin-2-yl)propane-2-sulfonamide [Example 324.0] | 380
(2R)-N-(4-(2,6-dimethoxyphenyl)-5-(tetrahydro-2H-pyran-4-yl)-4H-1,2,4-triazol-3-yl)-1-(5-fluoro-2-pyrimidinyl)-2-propanesulfonamide and (2S)-N-(4-(2,6-dimethoxyphenyl)-5-(tetrahydro-2H-pyran-4-yl)-4H-1,2,4-triazol-3-yl)-1-(5-fluoro-2-pyrimidinyl)-2-propanesulfonamide [Example 15.0] | 470
(2R)-N-(4-(2,6-dimethoxyphenyl)-5-(tetrahydro-2H-pyran-4-yl)-4H-1,2,4-triazol-3-yl)-1-(5-fluoro-2-pyrimidinyl)-2-propanesulfonamide or (2S)-N-(4-(2,6-dimethoxyphenyl)-5-(tetrahydro-2H-pyran-4-yl)-4H-1,2,4-triazol-3-yl)-1-(5-fluoro-2-pyrimidinyl)-2-propanesulfonamide [Example 16.0] | 380
(2R)-N-(4-(2,6-dimethoxyphenyl)-5-(tetrahydro-2H-pyran-4-yl)-4H-1,2,4-triazol-3-yl)-1-(5-fluoro-2-pyrimidinyl)-2-propanesulfonamide or (2S)-N-(4-(2,6-dimethoxyphenyl)-5-(tetrahydro-2H-pyran-4-yl)-4H-1,2,4-triazol-3-yl)-1-(5-fluoro-2-pyrimidinyl)-2-propanesulfonamide [Example 17.0] | 810
(2R,3S)-N-(4-(2,6-dimethoxyphenyl)-5-((S)-tetrahydrofuran-2-yl)-4H-1,2,4-triazol-3-yl)-3-(5-methylpyrimidin-2-yl)butane-2-sulfonamide or (2R,3S)-N-(4-(2,6-dimethoxyphenyl)-5-((R)-tetrahydrofuran-2-yl)-4H-1,2,4-triazol-3-yl)-3-(5-methylpyrimidin-2-yl)butane-2-sulfonamide [Example 219.0] | 220
(2R,3S)-N-(4-(2,6-dimethoxyphenyl)-5-((S)-tetrahydrofuran-2-yl)-4H-1,2,4-triazol-3-yl)-3-(5-methylpyrimidin-2-yl)butane-2-sulfonamide or (2R,3S)-N-(4-(2,6-dimethoxyphenyl)-5-((R)-tetrahydrofuran-2-yl)-4H-1,2,4-triazol-3-yl)-3-(5-methylpyrimidin-2-yl)butane-2-sulfonamide [Example 220.0] | 510
(2S,3R)-3-(5-Chloropyrimidin-2-yl)-N-(4-(3,5-dibromo-2,6-dimethoxyphenyl)-5-((R)-tetrahydrofuran-3-yl)-4H-1,2,4-triazol-3-yl)butane-2-sulfonamide or (2S,3R)-3-(5-chloropyrimidin-2-yl)-N-(4-(3,5-dibromo-2,6-dimethoxyphenyl)-5-((S)-tetrahydrofuran-3-yl)-4H-1,2,4-triazol-3-yl)butane-2-sulfonamide [Example 254.0] | 310
(2S,3R)-3-(5-chloro-2-pylimidinyl)-N-(4-(1,3-dimethoxy-2-propanyl)-5-((2R,5R)-5-methyltetrahydro-2-furanyl)-4H-1,2,4-triazol-3-yl)-2-butanesulfonamide or (2S,3R)-3-(5-chloro-2-pyrimidinyl)-N-(4-(1,3-dimethoxy-2-propanyl)-5-((2S,5S)-5-methyltetrahydro-2-furanyl)-4H-1,2,4-triazol-3-yl)-2-butanesulfonamide [Example 375.0] | 92
(2S,3R)-3-(5-chloro-2-pyridinyl)-N-(4-(1,3-dimethoxy-2-propanyl)-5-((2R,5R)-5-methyltetrahydro-2-furanyl)-4H-1,2,4-triazol-3-yl)-2-butanesulfonamide or (2S,3R)-3-(5-chloro-2-pyridinyl)-N-(4-(1,3-dimethoxy-2-propanyl)-5-((2S,5S)-5-methyltetrahydro-2-furanyl)-4H-1,2,4-triazol-3-yl)-2-butanesulfonamide [Example 372.0] | 240
